Results taken from US10905688B2, “Combinations comprising substituted imidazo[1,5-α]pyrazinones as PDE1 inhibitors” (H. Lundbeck A/S, priority 2016, dated 2021).

Columns and labels:
Format in all cases: biochemical
PDE1C = PDE1C (Homo sapiens (Human), UniProt Q14123); experiment: PDE1 inhibition assay (PDE1C), SPA with tritium labelled cAMP
Procedure: (§1) Reactions were initiated by addition of the cyclic nucleotide substrate, and reactions were allowed to proceed for 1 h at room temperature before being terminated through mixing with 20 μL (0.2 mg) yttrium silicate SPA beads (PerkinElmer). The beads were allowed to settle for 1 h in the dark before the plates were counted in a Wallac 1450 Microbeta counter.

PDE9 = PDE9 (Homo sapiens (Human), UniProt O76083); experiment: PDE9 inhibition assay, SPA with 3H-cAMP
Procedure: A PDE9 assay may for example, be performed as follows: The assay is performed in 60 μL samples containing a fixed amount of the relevant PDE enzyme (sufficient to convert 20-25% of the cyclic nucleotide substrate), a buffer (50 mM HEPES pH 7.6; 10 mM MgCl2; 0.02% Tween20), 0.1 mg/mi BSA, 225 pCi of ^3H-labelled cyclic nucleotide substrate, tritium labeled cAMP to a final concentration of 5 nM and varying amounts of inhibitors. Reactions are initiated by addition of the cyclic nucleotide substrate, and reactions are allowed to proceed for one hr at room temperature before being terminated through mixing with 15 μL 8 mg/mL yttrium silicate SPA beads (Amersham). The beads are allowed to settle for one hr in the dark before the plates are counted in a Wallac 1450 Microbeta counter.
In the context of the present invention the assay was performed in 60 μL assay buffer (50 mM HEPES pH 7.6; 10 mM MgCl2; 0.02% Tween20) containing enough PDE9 to convert 20-25% of 10 nM ^3H-cAMP and varying amounts of inhibitors. Following a 1 hr incubation the reactions were terminated by addition of 15 μL 8 mg/mL yttrium silicate SPA beads (Amersham). The beads were allowed to settle for one hr in the dark before the plates were counted in a Wallac 1450 Microbeta counter.

PDE1A = PDE1A (Homo sapiens (Human), UniProt P54750); experiment: PDE1 inhibition assay (PDE1A), SPA with tritium labelled cAMP; conditions: for inhibition at 2 µM: read-out: PDE1A, % inhibition at 2 μM
Procedure: Reactions were initiated by addition of the cyclic nucleotide substrate, and reactions were allowed to proceed for 1 h at room temperature before being terminated through mixing with 20 μL (0.2 mg) yttrium silicate SPA beads (PerkinElmer).

PDE1B = PDE1B (Homo sapiens (Human), UniProt Q01064); experiment: PDE1 inhibition assay (PDE1B), SPA with tritium labelled cAMP
Procedure: as §1

Chain of PDE9 (O76083 whole entry): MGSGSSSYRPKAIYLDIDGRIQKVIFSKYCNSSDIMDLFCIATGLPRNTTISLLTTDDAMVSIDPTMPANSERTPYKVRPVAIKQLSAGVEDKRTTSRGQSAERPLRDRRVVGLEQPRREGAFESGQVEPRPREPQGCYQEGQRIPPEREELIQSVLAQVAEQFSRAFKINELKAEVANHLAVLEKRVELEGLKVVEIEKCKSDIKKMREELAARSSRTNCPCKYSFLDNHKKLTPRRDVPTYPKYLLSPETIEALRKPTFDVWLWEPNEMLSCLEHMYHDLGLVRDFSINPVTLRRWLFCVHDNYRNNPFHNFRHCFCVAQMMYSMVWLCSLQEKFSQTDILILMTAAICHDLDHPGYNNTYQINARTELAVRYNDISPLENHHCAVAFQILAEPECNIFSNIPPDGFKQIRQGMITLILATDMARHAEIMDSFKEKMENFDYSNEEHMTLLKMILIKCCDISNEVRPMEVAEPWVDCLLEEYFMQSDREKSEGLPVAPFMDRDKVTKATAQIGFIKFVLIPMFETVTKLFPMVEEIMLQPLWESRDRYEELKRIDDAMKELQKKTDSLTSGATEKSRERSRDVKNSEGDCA
Chain of PDE1B (Q01064 whole entry): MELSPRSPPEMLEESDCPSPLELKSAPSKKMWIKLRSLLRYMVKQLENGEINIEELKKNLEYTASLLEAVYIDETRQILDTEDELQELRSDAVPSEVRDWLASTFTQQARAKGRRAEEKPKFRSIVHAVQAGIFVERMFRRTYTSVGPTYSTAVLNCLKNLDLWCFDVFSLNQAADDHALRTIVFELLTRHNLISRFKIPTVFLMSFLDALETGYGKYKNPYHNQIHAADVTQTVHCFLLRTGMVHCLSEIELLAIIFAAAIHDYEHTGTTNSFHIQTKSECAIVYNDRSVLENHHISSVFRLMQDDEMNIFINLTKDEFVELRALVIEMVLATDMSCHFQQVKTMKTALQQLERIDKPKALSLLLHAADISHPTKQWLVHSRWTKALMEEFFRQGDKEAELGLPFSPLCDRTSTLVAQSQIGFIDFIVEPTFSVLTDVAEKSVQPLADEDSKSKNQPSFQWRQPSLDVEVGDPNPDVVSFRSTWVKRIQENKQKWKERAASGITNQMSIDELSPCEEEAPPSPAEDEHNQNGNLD
Chain of PDE1A (P54750 whole entry): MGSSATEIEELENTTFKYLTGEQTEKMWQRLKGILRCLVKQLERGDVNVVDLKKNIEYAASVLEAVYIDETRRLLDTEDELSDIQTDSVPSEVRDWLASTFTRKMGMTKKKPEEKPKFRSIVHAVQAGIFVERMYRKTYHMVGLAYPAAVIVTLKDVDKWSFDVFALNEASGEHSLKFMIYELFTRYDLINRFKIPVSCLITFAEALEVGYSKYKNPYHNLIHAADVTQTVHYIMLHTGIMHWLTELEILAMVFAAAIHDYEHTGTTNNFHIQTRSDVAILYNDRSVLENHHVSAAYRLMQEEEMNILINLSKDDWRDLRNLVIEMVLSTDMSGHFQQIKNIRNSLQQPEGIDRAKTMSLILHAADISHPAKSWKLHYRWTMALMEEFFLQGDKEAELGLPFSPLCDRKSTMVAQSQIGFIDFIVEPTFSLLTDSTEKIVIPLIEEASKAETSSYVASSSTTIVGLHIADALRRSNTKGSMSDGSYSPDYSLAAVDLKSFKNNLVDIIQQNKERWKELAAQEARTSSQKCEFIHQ
Chain of PDE1C (Q14123 whole entry): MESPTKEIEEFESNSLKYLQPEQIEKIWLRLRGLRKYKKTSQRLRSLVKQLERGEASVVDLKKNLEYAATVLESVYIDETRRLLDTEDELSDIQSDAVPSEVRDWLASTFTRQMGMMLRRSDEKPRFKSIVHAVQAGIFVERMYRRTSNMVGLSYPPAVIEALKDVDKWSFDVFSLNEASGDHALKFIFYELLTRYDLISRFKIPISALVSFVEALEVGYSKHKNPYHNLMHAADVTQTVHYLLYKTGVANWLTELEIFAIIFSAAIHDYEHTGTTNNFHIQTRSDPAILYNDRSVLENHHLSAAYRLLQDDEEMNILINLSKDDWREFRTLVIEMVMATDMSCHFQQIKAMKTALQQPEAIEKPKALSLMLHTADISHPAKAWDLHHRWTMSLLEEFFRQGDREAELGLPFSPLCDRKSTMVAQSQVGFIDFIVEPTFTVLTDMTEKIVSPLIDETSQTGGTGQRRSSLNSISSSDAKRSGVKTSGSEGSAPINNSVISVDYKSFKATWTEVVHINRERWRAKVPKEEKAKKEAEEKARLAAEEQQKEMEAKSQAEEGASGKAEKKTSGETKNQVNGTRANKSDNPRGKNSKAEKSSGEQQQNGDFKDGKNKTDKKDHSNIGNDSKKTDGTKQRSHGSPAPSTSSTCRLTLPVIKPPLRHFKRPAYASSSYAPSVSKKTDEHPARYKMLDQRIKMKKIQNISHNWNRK

Structure (SMILES) | IC50 (PDE1C) [nM] | % inhibition of PDE9 at 10 microM (PDE9) [%] | IC50 (PDE1B) [nM] | further results
Cc1cn2c([C@@H]3C[C@@H]3F)ncc2c(=O)n1Cc1cccc(F)c1 (single isomer, unassigned; isomer 1) [37, isomer 1] | 345 | −2 | – | –
Cc1cn2c([C@@H]3C[C@H]3F)ncc2c(=O)n1Cc1cccc(F)c1 (single isomer, unassigned; isomer 1) [38, isomer 1] | – | −1 | – | –
Cc1cn2c(C3CCOCC3)ncc2c(=O)n1Cc1cccc(C#N)c1 [Example 45, 3-((6-methyl-8-oxo-3-(tetrahydro-2H-pyran-4-yl)imidazo[1,5-a]pyrazin-7(8H)-yl)methyl)benzonitrile] | – | – | – | inhibition at 2 µM (PDE1A): 64%
CCc1ccccc1Cn1c(C)cn2c(C3CCOCC3)ncc2c1=O [Example 49, 7-(2-ethylbenzyl)-6-methyl-3-(tetrahydro-2H-pyran-4-yl)imidazo[1,5-a]pyrazin-8(7H)-one] | – | – | – | inhibition at 2 µM (PDE1A): 44%
Cc1cn2c(N3CCC4OCC[C@@H]43)ncc2c(=O)n1Cc1cccc(F)c1 (single isomer, unassigned; isomer 2) [99, isomer 2] | 119 | 6 | 760 | PDE1A, % inhibition at 10 μM (PDE1A; at 10 μM): 47%
COc1ccc(Cn2c(C)cn3c([C@H]4CCO[C@@H]4C)ncc3c2=O)cc1 (single isomer, unassigned; isomer 3) [55, isomer 3] | – | – | 3 | –
Cc1cn2c(N3CCC4OCC[C@H]43)ncc2c(=O)n1Cc1cccc(F)c1 (single isomer, unassigned; isomer 1) [99, isomer 1] | 27 | 9 | 134 | IC50 (PDE1A): 241 nM
Cc1cn2c([C@H]3C[C@H]3F)ncc2c(=O)n1Cc1cccc(F)c1 (single isomer, unassigned; isomer 2) [38, isomer 2] | 153 | 2 | – | –
Cc1cn2c([C@H]3C[C@@H]3F)ncc2c(=O)n1Cc1cccc(F)c1 (single isomer, unassigned; isomer 2) [37, isomer 2] | 55 | 13 | – | –
